Test system: Hep G2 cells
Assay: Cellstain double staining (Live/Dead, calcein AM / propidium iodide) viability after freeze-drying and rehydration
Format: cell-based, human
Conditions: 24 h trehalose incubation, same lyoprotectants, liquid nitrogen freezing; with vs without GrowDex
Excerpt: One method to evaluate the cell membrane integrity is enzyme activity assays combined with nuclei staining. Calcein AM (acetoxy methyl) ester and propidium iodide are suitable for viability assessment of different microbes. Calcein AM is itself a non-fluorescent and cell membrane permeable molecule, but undergoes an esterase reaction when in cytosol if correct enzymes are available and transforms into calcein, which is a fluorescent molecule. This way, the fluorescent cells can be visually observed with fluorescence microscopy or a plate reader.
Therefore, only necrotic cells are affected, whereas apoptotic and healthy cells not. Once in the cytosol, the PI binds to any available DNA and RNA, including the DNA in nucleus. When excited with 535 nm light, an emission of 617 nm can be observed on the areas of dead cells.
Three lyoprotectants were chosen for testing with GrowDex®. First, the cells were cultivated regularly for 4 days either in 2D or 3D with 0.8% (w/w) of GrowDex®, and then the medium was changed. […] Then, the systems were freeze-dried and rehydrated and evaluated for viability with Cellstain double staining and fluorescence microscopy. […]
Autofluorescence was ruled out by killed control samples that were stained and imaged at the same time showing no green fluorescence in identical settings. […]

OC[C@H]1O[C@H](O[C@H]2O[C@H](CO)[C@@H](O)[C@H](O)[C@H]2O)[C@H](O)[C@@H](O)[C@@H]1O [trehalose, α-D-glucopyranosyl-(1→1)-α-D-glucopyranoside]
Live/dead dual staining outcome after freeze-drying and rehydration: the cells did not survive

— patent publication US11969505B2, “Method for freeze-drying cells in a hydrogel comprising nanofibrillar cellulose and freeze-dried cells in an aerogel comprising nanofibrillar cellulose” (UPM-KYMMENE CORPORATION, priority 2016, dated 2024)
